Where “and” joins values, the source holds several entries; their conditions need not be identical. Equal values may be shown once. Read-outs that look alike come from different tables or passages of the source.
System: advanced non-small-cell lung cancer patients
[1] = HER2 FISH- and/or EGFR mutation-
[2] = all 85 patients with EGFR mutation and P-Akt
[3] = all 89 patients with EGFR mutation analysis
[4] = all 98 patients with EGFR FISH and P-Akt
[5] = all 98 patients with EGFR IHC and P-Akt
[6] = all 102 patients, Example 1 analysis

Method: Eligibility included histologically confirmed NSCLC patients with measurable, locally advanced or metastatic disease, who had progressed or relapsed after chemotherapy, and patients ineligible for chemotherapy because they were elderly, had poor performance status, or comorbid medical condition. Before trial inclusion, smoking status was assessed and patients were classified as never, former (smoking cessation >6 months prior to trial inclusion), or current smokers (cessation <6 months before trial inclusion or active smoker).
Patients were evaluated for response according to the RECIST criteria (30). Tumor response was assessed by computer tomography scan every two months, with a confirmatory evaluation to be repeated in responding patients at least 4 weeks after the initial determination of response. […] Survival (OS) was calculated from the date of therapy initiation to the date of death or last contact.
Differences between the FISH groups were compared by Fisher's exact test or χ^2 test for qualitative variables and by t-student test or ANOVA for continuous variables. Normality of the distribution was assessed by Kolmogorov-Smirnov test. […] Risk factors associated with survival were evaluated using Cox's proportional-hazards regression model with a step-down procedure (33). Only those variables with significant results in univariate analysis were included in the multivariate analysis. The criteria for variable removal was the likelihood ratio statistic based on the maximum partial likelihood estimated (default p-value=0.10 for removal from the model).
Complete clinical information and tissue blocks were available from 80 out of 106 patients enrolled in the Akt clinical trial (Cappuzzo et al., ibid.), and from an additional 22 patients in the Expanded Access Study who were treated consecutively at the end of the Akt study and followed in the same way as patients in the Akt trial.
Eligibility for both studies included histologically confirmed NSCLC with measurable, locally advanced or metastatic disease, progressing or relapsing after chemotherapy or with medical contraindications for chemotherapy. Patients had performance status ranging from grade 0 to 2. Performance status was defined according to Eastern Cooperative Oncology Group (Oken et al., 1982) and considered grade 0 when the patient was fully active and able to perform all pre-disease activities without restriction, grade 1 when the patient was restricted in physically strenuous activity but ambulatory and able to perform work of a light or sedentary nature, and grade 2 when the patient was ambulatory and capable of all self-care but unable to perform any work activities.
Tumor response was assessed by computer tomography scan after 2 months, with a confirmatory evaluation to be repeated in responders and in patients with stable disease at least 4 weeks after the initial determination of response. […] Survival was calculated from the date of therapy initiation to the date of death or to the date of last contact.
Differences between and among groups were compared using Fisher's exact test or Pearson's chi square test for qualitative variables and using student's t test or analysis of variance for continuous variables. Normality of the distribution was assessed using the Kolmogorov-Smirnov test (Curiel et al., 1990).

COc1cc2ncnc(Nc3ccc(F)c(Cl)c3)c2cc1OCCCN1CCOCC1 [gefitinib]
TTP (HER2 FISH+/EGFR IHC+): 12.3 months
OS (HER2 FISH+/EGFR IHC-): 3.3 months
TTP (HER2 FISH+/EGFR IHC-): 2.3 months
DCR (HER2 FISH+/EGFR mutation+): 87.5%
OR (HER2 FISH+/EGFR mutation+): 87.5%
OS (HER2 FISH+/EGFR mutation+): not reached
TTP (HER2 FISH+/EGFR mutation+): 15.5 months
OR (HER2 FISH+/EGFR mutation-): no patient responded
TTP (HER2 FISH+/EGFR mutation-): 2.3 months
DCR (HER2 FISH-): 33.3%
OR (HER2 FISH-): 6.4%
OS (HER2 FISH-): 8.4 months
TTP (HER2 FISH-): 2.7 months
DCR (HER2 FISH- and/or EGFR FISH-): 33.0%
OR (HER2 FISH- and/or EGFR FISH-): 6.8%
median OS (HER2 FISH- and/or EGFR FISH-): 8.3 months
median TTP (HER2 FISH- and/or EGFR FISH-): 2.6 months
DCR (HER2 FISH- and/or EGFR IHC-): 34.5%
OR (HER2 FISH- and/or EGFR IHC-): 7.1%
OS (HER2 FISH- and/or EGFR IHC-): 8.4 months
TTP (HER2 FISH- and/or EGFR IHC-): 2.6 months
DCR [1]: 31.3%
OR [1]: 5.0%
OS [1]: 8.3
TTP [1]: 2.6 months
DCR (HER2 FISH-/EGFR FISH+): 30.0%
OR (HER2 FISH-/EGFR FISH+): 10.0%
median OS (HER2 FISH-/EGFR FISH+): 9.3 months
median TTP (HER2 FISH-/EGFR FISH+): 5.3 months
OR (HER2 FISH-/EGFR FISH-): 1.6%
median OS (HER2 FISH-/EGFR FISH-): 7.3 months
median TTP (HER2 FISH-/EGFR FISH-): 2.6 months
OR (HER2 FISH-/EGFR IHC+): 11.1%
OS (HER2 FISH-/EGFR IHC+): 11.3 months
TTP (HER2 FISH-/EGFR IHC+): 4.2 months
DCR (HER2 FISH-/EGFR IHC-): 13.7%
OR (HER2 FISH-/EGFR IHC-): 0%
OS (HER2 FISH-/EGFR IHC-): 5.0 months
TTP (HER2 FISH-/EGFR IHC-): 2.1 months
DCR (HER2 FISH-/EGFR mutation+): 28.5%
OR (HER2 FISH-/EGFR mutation+): 14.2%
OS (HER2 FISH-/EGFR mutation+): 5.7
TTP (HER2 FISH-/EGFR mutation+): 2.8 months
DCR (HER2 FISH-/EGFR mutation-): 32.2%
OR (HER2 FISH-/EGFR mutation-): 4.8%
Disease Control Rate (Italian Cohort, Table 12): 39%
Median Survival (Italian Cohort, Table 12): 9 (6-11)
Median Time to Progression (Italian Cohort, Table 12): 3 (2-4)
One-YR Survival (Italian Cohort, Table 12): 41% (31-51)
Overall Response (Italian Cohort, Table 12): 13%
Disease Control Rate (P-Akt negative): 22%
response rate (P-Akt negative): 0%
time to progression (P-Akt negative): 2.1 months
Survival (P-Akt positive): 11.4 months
response rate (P-Akt positive): 21%
time to progression (P-Akt positive): 4.2 months
1-year Cumulative Survival ± SD (adenocarcinoma): 45 ± 7%
Median Survival (adenocarcinoma): 11.3 months
Median Time to Progression (adenocarcinoma): 3.2 months
Objective Response (adenocarcinoma): 8/15%
Median Time to Progression [2]: 2.9 months
Objective Response [2]: 12/14%
1-year survival [3]: 41 ± 5
MS [3]: 9.4 mo
OR [3]: 12 (13%)
TTP [3]: 2.9 mo
1-year Cumulative Survival ± SD [4]: 47 ± 6%
Disease Control Rate [4]: 40/40%
Median Survival [4]: 11.5 months
Median Time to Progression [4]: 4.5 months
Objective Response [4]: 14/14%
MS (median overall survival) (all 98 patients with EGFR IHC): 9.5 mo
OR (objective response) (all 98 patients with EGFR IHC): 14 (14%)
PD (progressive disease) (all 98 patients with EGFR IHC): 58 (59%)
TTP (all 98 patients with EGFR IHC): 2.9 mo
1-year Cumulative Survival ± SD [5]: 45 ± 6%
Disease Control Rate [5]: 40/40%
Median Survival [5]: 11.3 months
Median Time to Progression [5]: 3.2 months
Objective Response [5]: 14/14%
Complete response (CR) (all 102 patients): 1%
Partial responses (PR) (all 102 patients): 12.7%
% Patients without disease progression at 12 months [6]: 18.6%
Complete and Partial Response [6]: 13.7% and 14%
Disease Control Rate [6]: 39.2% and 39%
Median Time to Progression [6]: 2.9 months
One-year Survival Rate [6]: 45.1%
Progressive Disease [6]: 60.8%
Stable Disease [6]: 25.5%
Median Time to Progression (all 102 patients, Table 1): 2.9 months
Objective Response (all 102 patients, Table 1): 14% and 14/14%
Progressive Disease (all 102 patients, Table 1): 60% and 62/60%
1-year Cumulative Survival ± SD (bronchioloalveolar): 67 ± 16%
Median Survival (bronchioloalveolar): 16.5 months
Median Time to Progression (bronchioloalveolar): 3.0 months
Objective Response (bronchioloalveolar): 3/33%
Progressive Disease (bronchioloalveolar): 5/56%
1-year Cumulative Survival ± SD (current smoker): 30 ± 6%
Median Survival (current smoker): 4.5 months
Median Time to Progression (current smoker): 2.3 months
Objective Response (current smoker): 3/6%
Progressive Disease (current smoker): 39/72%
1-year Cumulative Survival ± SD (female): 48 ± 9%
Median Survival (female): 11.3 months
Median Time to Progression (female): 5.2 months
Progressive Disease (female): 16/46%
median TTP (females, Example 1 analysis): 4.5 months
response rate (former and current smokers): 20.8%
1-year Cumulative Survival ± SD (former smoker): 55 ± 9%
Median Time to Progression (former smoker): 3.6 months
Objective Response (former smoker): 5/15%
Progressive Disease (former smoker): 17/51%
1-year Cumulative Survival ± SD (large cell): 0 ± 0%
Median Survival (large cell): 0.8 months
Median Time to Progression (large cell): 0.8 months
Objective Response (large cell): 0%
Progressive Disease (large cell): 2/100%
Median Time to Progression (male): 2.7 months
Objective Response (male): 6.0% and 4/6%
median TTP (males, Example 1 analysis): 2.7 months
1-year Cumulative Survival ± SD (never smoker): 47 ± 14%
Median Survival (never smoker): 10.9 months
Median Time to Progression (never smoker): 5.3 months
Progressive Disease (never smoker): 6/40%
Median Time to Progression (performance status 0): 2.6 months
Objective Response (performance status 0): 5/10%
Progressive Disease (performance status 0): 32/65%
1-year Cumulative Survival ± SD (performance status 1): 47 ± 8%
Median Survival (performance status 1): 10.9 months
Median Time to Progression (performance status 1): 4.2 months
Progressive Disease (performance status 1): 22/54%
1-year Cumulative Survival ± SD (performance status 2): 22 ± 13%
Median Survival (performance status 2): 2.7 months
Median Time to Progression (performance status 2): 2.1 months
Objective Response (performance status 2): 2/17%
1-year Cumulative Survival ± SD (squamous cell): 22 ± 9%
Median Time to Progression (squamous cell): 2.2 months
Objective Response (squamous cell): 2/8%
1-year Cumulative Survival ± SD (stage III): 36 ± 13%
Median Time to Progression (stage III): 6.0 months
Objective Response (stage III): 1/7%
Median Time to Progression (stage IV): 2.7 months
Objective Response (stage IV): 13/15%
1-year Cumulative Survival ± SD (undifferentiated): 45 ± 15%
Median Time to Progression (undifferentiated): 2.1 months
Objective Response (undifferentiated): 1/9%
